Consider 2 molecules from paper PMC3950977 (Nanotechnology, 2011).

By half-life is commonly meant the time needed for the level to fall by half in the phase considered.

SMILES strings stand for the structures. Peptide text beside a SMILES is read from it. * marks the point of attachment. X1 = NC(=O)CCOCCOCCOCCOCCOCCOCCOCCOCCOCCOCCOCCOCCOCCOCCOCCOCCOCCOCCOCCOCCOCCOCCOCCOCCOCCOCCOCCOCCN*

The nature of series [1]: Peptide degradation by proteinase K. The format is in vitro ADME. Particulars: isolated enzyme proteinase k, pH 7.1.
For series [2] the following is noted: transmission electron microscopy and dynamic light scattering; cited from earlier work.

Molecule `CC[C@H](C)[C@H](NC(=O)[C@@H](NC(=O)[C@H](Cc1ccccc1)NC(=O)[C@H](CC(C)C)NC(=O)[C@@H](N)CC(C)C)C(C)C)C(=O)N[C@H](C(=O)N[C@@H](CC(C)C)C(=O)N1CCC[C@H]1C(=O)N[C@@H](Cc1ccccc1)C(=O)N[C@@H](Cc1c[nH]c2ccccc12)C(=O)N[C@@H](C)C(=O)N[C@H](C(=O)N[C@@H](CC(=O)O)C(=O)N[C@@H](C)C(=O)N[C@H](C(=O)N[C@@H](C)C(=O)N[C@@H](CC(N)=O)C(=O)N[C@@H](Cc1c[nH]c2ccccc12)C(=O)N[C@@H](Cc1ccc(O)cc1)C(=O)N[C@@H](Cc1ccccc1)C(=O)NCC(=O)N[C@@H](CC(N)=O)C(=O)N[C@@H](CC(=O)O)C(=O)N[C@@H](CC(=O)O)C(=O)NCCOCCOCCOCCOCCOCCOCCOCCOCCOCCOCCOCCOCCOCCOCCOCCOCCOCCOCCOCCOCCOCCOCCOCCOCCOCCOCCOCCOCCC(N)=O)C(C)C)C(C)C)[C@@H](C)O` [x4-2-6] (H-LLFVITLPFWAVDAVANWYFGNDD-X1) showed a half-life in series [1] of 11.8 ± 1.8 min. The “diameter of self-assembled nanospheres” value in series [2] was 10 nm.
`CC[C@H](C)[C@H](NC(=O)[C@@H](NC(=O)[C@@H](N)Cc1ccccc1)C(C)C)C(=O)N[C@H](C(=O)N[C@@H](CC(C)C)C(=O)N1CCC[C@H]1C(=O)N[C@@H](Cc1ccccc1)C(=O)N[C@@H](Cc1c[nH]c2ccccc12)C(=O)N[C@@H](C)C(=O)N[C@H](C(=O)N[C@@H](CC(=O)O)C(=O)N[C@@H](C)C(=O)N[C@H](C(=O)N[C@@H](C)C(=O)N[C@@H](CC(N)=O)C(=O)N[C@@H](Cc1c[nH]c2ccccc12)C(=O)N[C@@H](Cc1ccc(O)cc1)C(=O)N[C@@H](Cc1ccccc1)C(=O)NCC(=O)N[C@@H](CC(N)=O)C(=O)N[C@@H](CC(=O)O)C(=O)N[C@@H](CC(=O)O)C(=O)NCCOCCOCCOCCOCCOCCOCCOCCOCCOCCOCCOCCOCCOCCOCCOCCOCCOCCOCCOCCOCCOCCOCCOCCOCCOCCOCCOCCOCCC(N)=O)C(C)C)C(C)C)[C@@H](C)O` [x4-2-9] (H-FVITLPFWAVDAVANWYFGNDD-X1): in series [1], the half-life is 2.9 ± 1.2 min.
